# Results as given in patent US20190192699A1, “NUCLEAR IMAGING AND RADIOTHERAPEUTICS AGENTS TARGETING CARBONIC ANHYDRASE IX AND USES THEREOF” (THE JOHNS HOPKINS UNIVERSITY, priority 2016, published 2019).
# “And” between values parts separate entries of the source, which are not always exact repeats. Equal values may be shown once. “Also recorded” adds a separate entry of the source.
# Key:
# SK-RC-52 xenografts = assay: Biodistribution of [64Cu]XYIMSR-06; assay type: in vivo, mice
# Protocol: (§1) Cell Lines and Mouse Models. Animal experiments were performed in accordance with protocols approved by the Johns Hopkins Animal Care and Use Committee (ACUC). Six-week-old female NOD/SCID mice were purchased from the Animal Resource Core of the Sidney Kimmel Comprehensive Cancer Center of Johns Hopkins and were subcutaneously injected in the lower left flank or upper right flank with 1×10^6 SK-RC-52 cells in RPMI 1640 GlutaMAX™ media (Life Technologies, Frederick, Md.) supplemented with 1% fetal bovine serum (FBS). Mice were monitored for tumor size and used for SPECT/CT imaging when the size of the tumor reached 100 mm^3.
# Biodistribution of [^64Cu]XYIMSR-06. Mice bearing SK-RC-52 xenografts within the upper right flank were injected intravenously with 740 kBq (20 μCi) of [^64Cu]XYIMSR-06 in 200 μL of PBS. For in vivo competition (binding specificity) studies, tumor-bearing mice were injected with 740 kBq (20 μCi) of [^64Cu]XYIMSR-06 and 200 nmole of 1 in 200 μL of PBS concurrently. At specific times after injection (1 h, 4 h, 8 h and 24 h), mice (n=5) were sacrificed by cervical dislocation with blood immediately collected by cardiac puncture. Heart, lungs, pancreas, spleen, fat, brain, muscle, small intestines, liver, stomach, kidney, urinary bladder, and tumor were also collected. Each organ was weighed and the tissue radioactivity was measured with an automated gamma counter (1282 Compugamma CS, Pharmacia/LKBNuclear, Inc., Mt. Waverly, Vic. Australia). The percentage of injected dose per gram of tissue (% ID/g) was calculated by comparison with samples of a standard dilution of the initial dose. All measurements were corrected for radioactive decay. Data were expressed as mean±standard deviation (SD). Prism software (GraphPAD, San Diego, Calif.) was used to determine statistical significance. Statistical significance was calculated using a paired t test. P-values […] were considered significant.
# [1] = test system: CAIX-expressing SK-RC-52 tumors; assay: PET/CT imaging of [64Cu]XYIMSR-06; assay type: in vivo, mice; details: 22.2 MBq (600 μCi) via tail vein
# Protocol: as §1
# PET/CT imaging of [^64Cu]XYIMSR-06. Mice harboring subcutaneous SK-RC-52 tumors within the upper right flank were injected intravenously (tail vein) with 22.2 MBq (600 μCi) of [^64Cu]XYIMSR-06 in 250 μL of PBS (pH=7.0). Anesthesia was then induced with 3% isoflurane and maintained with 2% isoflurane. Physiologic temperature was maintained with an external light source while the mouse was on the gantry. Whole body, 2-bed PET/CT imaging was performed using the SuperArgus small animal PET/CT scanner (Sedecal, Madrid, Spain), […] a 250-700 keV energy window. PET acquisition times were: 5 min/bed position (1 h post-injection of [^64Cu]XYIMSR-06); 10 min/bed position (4 and 8 h) and 20 min/bed position (24 h). […]
# [2] = 8 h + block (200 nmole of 1 co-injected)
# [3] = 24 h + block (200 nmole of 1 co-injected)
compound,measurement,setting,value
CC(CCC(=O)N[C@@H](CC(=O)N[C@@H](CC(=O)N[C@@H](CCCCn1cc(CCCC(=O)Nc2nnc(S(N)(=O)=O)s2)nn1)C(=O)NCCOCCOCCNC(=S)Nc1ccc(CC2CN(CC(=O)[O-])CCN(CC(=O)[O-])CCN2CC(=O)O)cc1)C(=O)O)C(=O)O)(c1ccc(O)cc1)c1ccc(O)cc1.[64Cu+2] (stereo partly shown) [[^64Cu]XYIMSR-06],Biodistribution: Bladder,SK-RC-52 xenografts; 1 h post-injection,11.12 ± 6.33 % ID/g
same,Biodistribution: Blood,SK-RC-52 xenografts; 1 h post-injection,0.66 ± 0.05 % ID/g
same,Biodistribution: Brain,SK-RC-52 xenografts; 1 h post-injection,1.46 ± 2.23 % ID/g
same,Biodistribution: Fat,SK-RC-52 xenografts; 1 h post-injection,0.80 ± 0.17 % ID/g
same,Biodistribution: Heart,SK-RC-52 xenografts; 1 h post-injection,3.41 ± 0.79 % ID/g
same,Biodistribution: Kidney (kid),SK-RC-52 xenografts; 1 h post-injection,33.65 ± 3.91 % ID/g
same,Biodistribution: Liver,SK-RC-52 xenografts; 1 h post-injection,3.25 ± 0.97 % ID/g
same,Biodistribution: Lung,SK-RC-52 xenografts; 1 h post-injection,25.52 ± 3.35 % ID/g
same,Biodistribution: Muscle (mm),SK-RC-52 xenografts; 1 h post-injection,1.28 ± 0.27 % ID/g
same,Biodistribution: Pancreas,SK-RC-52 xenografts; 1 h post-injection,2.94 ± 0.24 % ID/g
same,Biodistribution: Sm. intestine,SK-RC-52 xenografts; 1 h post-injection,7.35 ± 0.78 % ID/g
same,Biodistribution: Spleen,SK-RC-52 xenografts; 1 h post-injection,0.36 ± 0.08 % ID/g
same,Biodistribution: Stomach,SK-RC-52 xenografts; 1 h post-injection,14.80 ± 2.27 % ID/g
same,Biodistribution: Tumor,SK-RC-52 xenografts; 1 h post-injection,14.5 % ID/g and 14.47 ± 2.69 % ID/g
same,Tumor/kid (kidney) ratio,SK-RC-52 xenografts; 1 h post-injection,0.4 ± 0.1
same,Tumor/mm (muscle) ratio,SK-RC-52 xenografts; 1 h post-injection,10.8 ± 3.7
same,Biodistribution: Bladder,SK-RC-52 xenografts; 4 h post-injection,17.05 ± 8.86 % ID/g
same,Biodistribution: Blood,SK-RC-52 xenografts; 4 h post-injection,0.33 ± 0.06 % ID/g
same,Biodistribution: Brain,SK-RC-52 xenografts; 4 h post-injection,0.29 ± 0.06 % ID/g
same,Biodistribution: Fat,SK-RC-52 xenografts; 4 h post-injection,0.52 ± 0.29 % ID/g
same,Biodistribution: Heart,SK-RC-52 xenografts; 4 h post-injection,1.78 ± 0.33 % ID/g
same,Biodistribution: Kidney (kid),SK-RC-52 xenografts; 4 h post-injection,19.99 ± 2.88 % ID/g
same,Biodistribution: Liver,SK-RC-52 xenografts; 4 h post-injection,2.18 ± 0.57 % ID/g
same,Biodistribution: Lung,SK-RC-52 xenografts; 4 h post-injection,12.03 ± 1.61 % ID/g
same,Biodistribution: Muscle (mm),SK-RC-52 xenografts; 4 h post-injection,0.70 ± 0.18 % ID/g
same,Biodistribution: Pancreas,SK-RC-52 xenografts; 4 h post-injection,1.36 ± 0.19 % ID/g
same,Biodistribution: Sm. intestine,SK-RC-52 xenografts; 4 h post-injection,4.15 ± 0.69 % ID/g
same,Biodistribution: Spleen,SK-RC-52 xenografts; 4 h post-injection,0.24 ± 0.04 % ID/g
same,Biodistribution: Stomach,SK-RC-52 xenografts; 4 h post-injection,8.19 ± 0.97 % ID/g
same,Biodistribution: Tumor,SK-RC-52 xenografts; 4 h post-injection,19.3 % ID/g and 19.31 ± 4.51 % ID/g
same,Tumor/Blood ratio,SK-RC-52 xenografts; 4 h post-injection,57.7 ± 9.3
same,Tumor/kid (kidney) ratio,SK-RC-52 xenografts; 4 h post-injection,1.0 ± 0.1
same,Tumor/mm (muscle) ratio,SK-RC-52 xenografts; 4 h post-injection,29.4 ± 9.9
same,Biodistribution: Bladder,SK-RC-52 xenografts; [2],1.45 ± 1.53 % ID/g
same,Biodistribution: Blood,SK-RC-52 xenografts; [2],0.08 ± 0.01 % ID/g
same,Biodistribution: Brain,SK-RC-52 xenografts; [2],0.04 ± 0.01 % ID/g
same,Biodistribution: Fat,SK-RC-52 xenografts; [2],0.05 ± 0.01 % ID/g
same,Biodistribution: Heart,SK-RC-52 xenografts; [2],0.16 ± 0.03 % ID/g
same,Biodistribution: Kidney (kid),SK-RC-52 xenografts; [2],1.82 ± 0.39 % ID/g
same,Biodistribution: Liver,SK-RC-52 xenografts; [2],0.55 ± 0.08 % ID/g
same,Biodistribution: Lung,SK-RC-52 xenografts; [2],0.77 ± 0.14 % ID/g
same,Biodistribution: Muscle (mm),SK-RC-52 xenografts; [2],0.05 ± 0.02 % ID/g
same,Biodistribution: Pancreas,SK-RC-52 xenografts; [2],0.14 ± 0.03 % ID/g
same,Biodistribution: Sm. intestine,SK-RC-52 xenografts; [2],0.38 ± 0.06 % ID/g
same,Biodistribution: Spleen,SK-RC-52 xenografts; [2],0.14 ± 0.02 % ID/g
same,Biodistribution: Stomach,SK-RC-52 xenografts; [2],0.69 ± 0.18 % ID/g
same,Biodistribution: Tumor,SK-RC-52 xenografts; [2],2.39 ± 0.24 % ID/g
same,Tumor/Blood ratio,SK-RC-52 xenografts; [2],32.0 ± 3.8
same,Tumor/kid (kidney) ratio,SK-RC-52 xenografts; [2],1.3 ± 10.2
same,Tumor/mm (muscle) ratio,SK-RC-52 xenografts; [2],53.0 ± 12.6
same,Biodistribution: Bladder,SK-RC-52 xenografts; 8 h post-injection,7.43 ± 7.72 % ID/g
same,Biodistribution: Blood,SK-RC-52 xenografts; 8 h post-injection,0.13 ± 0.02 % ID/g
same,Biodistribution: Brain,SK-RC-52 xenografts; 8 h post-injection,0.24 ± 0.06 % ID/g
same,Biodistribution: Fat,SK-RC-52 xenografts; 8 h post-injection,0.28 ± 0.27 % ID/g
same,Biodistribution: Heart,SK-RC-52 xenografts; 8 h post-injection,0.65 ± 0.10 % ID/g
same,Biodistribution: Kidney (kid),SK-RC-52 xenografts; 8 h post-injection,8.14 ± 1.15 % ID/g
same,Biodistribution: Liver,SK-RC-52 xenografts; 8 h post-injection,0.99 ± 0.22 % ID/g
same,Biodistribution: Lung,SK-RC-52 xenografts; 8 h post-injection,4.64 ± 0.58 % ID/g
same,Biodistribution: Muscle (mm),SK-RC-52 xenografts; 8 h post-injection,0.21 ± 0.05 % ID/g
same,Biodistribution: Pancreas,SK-RC-52 xenografts; 8 h post-injection,0.47 ± 0.21 % ID/g
same,Biodistribution: Sm. intestine,SK-RC-52 xenografts; 8 h post-injection,1.98 ± 0.14 % ID/g
same,Biodistribution: Spleen,SK-RC-52 xenografts; 8 h post-injection,0.18 ± 0.02 % ID/g
same,Biodistribution: Stomach,SK-RC-52 xenografts; 8 h post-injection,4.02 ± 0.53 % ID/g
same,Biodistribution: Tumor,SK-RC-52 xenografts; 8 h post-injection,16.74 ± 1.58 % ID/g
same,Tumor/Blood ratio,SK-RC-52 xenografts; 8 h post-injection,129.6±18.8
same,Tumor/kid (kidney) ratio,SK-RC-52 xenografts; 8 h post-injection,2.1±0.26
same,Tumor/mm (muscle) ratio,SK-RC-52 xenografts; 8 h post-injection,84.3±21.0
same,all other tumor-to-organ ratios tested,SK-RC-52 xenografts; 24 h,≥ 10.0
same,tumor-to-lung ratio,SK-RC-52 xenografts; 24 h,4.9
same,Biodistribution: Bladder,SK-RC-52 xenografts; [3],0.45 ± 0.50 % ID/g
same,Biodistribution: Blood,SK-RC-52 xenografts; [3],0.01 ± 0.08 % ID/g
same,Biodistribution: Brain,SK-RC-52 xenografts; [3],0.02 ± 0.01 % ID/g
same,Biodistribution: Fat,SK-RC-52 xenografts; [3],0.01 ± 0.01 % ID/g
same,Biodistribution: Heart,SK-RC-52 xenografts; [3],0.08 ± 0.01 % ID/g
same,Biodistribution: Kidney (kid),SK-RC-52 xenografts; [3],0.48 ± 0.09 % ID/g
same,Biodistribution: Liver,SK-RC-52 xenografts; [3],0.42 ± 0.04 % ID/g
same,Biodistribution: Lung,SK-RC-52 xenografts; [3],0.29 ± 0.05 % ID/g
same,Biodistribution: Muscle (mm),SK-RC-52 xenografts; [3],0.04 ± 0.06 % ID/g
same,Biodistribution: Pancreas,SK-RC-52 xenografts; [3],0.07 ± 0.02 % ID/g
same,Biodistribution: Sm. intestine,SK-RC-52 xenografts; [3],0.19 ± 0.05 % ID/g
same,Biodistribution: Spleen,SK-RC-52 xenografts; [3],0.11 ± 0.04 % ID/g
same,Biodistribution: Stomach,SK-RC-52 xenografts; [3],0.29 ± 0.04 % ID/g
same,Biodistribution: Tumor,SK-RC-52 xenografts; [3],1.20 ± 0.47 % ID/g
same,Tumor/Blood ratio,SK-RC-52 xenografts; [3],27.1 ± 26.7
same,Tumor/kid (kidney) ratio,SK-RC-52 xenografts; [3],2.4 ± 0.4
same,Tumor/mm (muscle) ratio,SK-RC-52 xenografts; [3],49.0 ± 28.7
same,Biodistribution: Bladder,SK-RC-52 xenografts; 24 h post-injection,0.34 ± 0.09 % ID/g
same,Biodistribution: Blood,SK-RC-52 xenografts; 24 h post-injection,0.00 ± 0.06 % ID/g
same,Biodistribution: Brain,SK-RC-52 xenografts; 24 h post-injection,0.13 ± 0.02 % ID/g
same,Biodistribution: Fat,SK-RC-52 xenografts; 24 h post-injection,0.03 ± 0.01 % ID/g
same,Biodistribution: Heart,SK-RC-52 xenografts; 24 h post-injection,0.12 ± 0.03 % ID/g
same,Biodistribution: Kidney (kid),SK-RC-52 xenografts; 24 h post-injection,0.90 ± 0.12 % ID/g
same,Biodistribution: Liver,SK-RC-52 xenografts; 24 h post-injection,0.38 ± 0.03 % ID/g
same,Biodistribution: Lung,SK-RC-52 xenografts; 24 h post-injection,1.27 ± 0.38 % ID/g
same,Biodistribution: Muscle (mm),SK-RC-52 xenografts; 24 h post-injection,0.02 ± 0.01 % ID/g
same,Biodistribution: Pancreas,SK-RC-52 xenografts; 24 h post-injection,0.21 ± 0.29 % ID/g
same,Biodistribution: Sm. intestine,SK-RC-52 xenografts; 24 h post-injection,0.47 ± 0.03 % ID/g
same,Biodistribution: Spleen,SK-RC-52 xenografts; 24 h post-injection,0.09 ± 0.01 % ID/g
same,Biodistribution: Stomach,SK-RC-52 xenografts; 24 h post-injection,0.65 ± 0.04 % ID/g
same,Biodistribution: Tumor,SK-RC-52 xenografts; 24 h post-injection,6.2 % ID/g and 6.23 ± 1.41 % ID/g
same,Tumor/Blood ratio,SK-RC-52 xenografts; 24 h post-injection,142.6 ± 115.8
same,Tumor/kid (kidney) ratio,SK-RC-52 xenografts; 24 h post-injection,7.1 and 7.1 ± 2.5
same,Tumor/mm (muscle) ratio,SK-RC-52 xenografts; 24 h post-injection,261.3 ± 47.3
same,tumor uptake on co-injection of 200 nmole of 1,SK-RC-52 xenografts; co-injection of 200 nmole of 1,blocked tumor uptake
same,radiotracer uptake within liver (in vivo stability of NOTA-64Cu chelation),SK-RC-52 xenografts; within 24 h,no significant radiotracer uptake within liver
same,PET/CT tumor imaging finding,[1],"radiotracer uptake in tumor as early as 1 h post-injection; also recorded: At 1 h, tumor could be observed distinctly"
